Test results from ChEMBL document CHEMBL4665869, “New thiazolopyrimidine as anticancer agents: Synthesis, biological evaluation, DNA binding, molecular modeling and ADMET study” (Bioorg Med Chem Lett, 2020).
≈ marks a conversion by molar mass, not a printed value.

Legend:
NCI-H522 = assay: Growth inhibition of human NCI-H522 cells at 10 uM relative to control; assay type: functional; details: read-out: GI
MCF7 = assay: Growth inhibition of human MCF7 cells at 10 uM relative to control; assay type: functional; details: read-out: GI
HCT-15 = assay: Growth inhibition of human HCT-15 cells at 10 uM relative to control; assay type: functional; details: read-out: GI
SK-MEL-5 = assay: Growth inhibition of human SK-MEL-5 cells at 10 uM relative to control; assay type: functional; details: read-out: GI
HL-60(TB) = assay: Growth inhibition of human HL-60(TB) cells at 10 uM relative to control; assay type: functional; details: read-out: GI
K562 = assay: Growth inhibition of human K562 cells at 10 uM relative to control; assay type: functional; details: read-out: GI
SF-539 = assay: Growth inhibition of human SF-539 cells at 10 uM relative to control; assay type: functional; details: read-out: GI
OVCAR-8 = assay: Growth inhibition of human OVCAR-8 cells at 10 uM relative to control; assay type: functional; details: read-out: GI
DU-145 = assay: Growth inhibition of human DU-145 cells at 10 uM relative to control; assay type: functional; details: read-out: GI
UACC-257 = assay: Growth inhibition of human UACC-257 cells at 10 uM relative to control; assay type: functional; details: read-out: GI
Hs-578T = assay: Growth inhibition of human Hs-578T cells at 10 uM relative to control; assay type: functional; details: read-out: GI
SF-268 = assay: Growth inhibition of human SF-268 cells at 10 uM relative to control; assay type: functional; details: read-out: GI
IGROV-1 = assay: Growth inhibition of human IGROV-1 cells at 10 uM relative to control; assay type: functional; details: read-out: GI
BT-549 = assay: Growth inhibition of human BT-549 cells at 10 uM relative to control; assay type: functional; details: read-out: GI
PC-3 = assay: Growth inhibition of human PC-3 cells at 10 uM relative to control; assay type: functional; details: read-out: GI
NCI-H23 = assay: Growth inhibition of human NCI-H23 cells at 10 uM relative to control; assay type: functional; details: read-out: GI
Malme-3M = assay: Growth inhibition of human Malme-3M cells at 10 uM relative to control; assay type: functional; details: read-out: GI
NCI-H322M = assay: Growth inhibition of human NCI-H322M cells at 10 uM relative to control; assay type: functional; details: read-out: GI
LOX IMVI = assay: Growth inhibition of human LOX IMVI cells at 10 uM relative to control; assay type: functional; details: read-out: GI
SW-620 = assay: Growth inhibition of human SW-620 cells at 10 uM relative to control; assay type: functional; details: read-out: GI
COLO 205 = assay: Growth inhibition of human COLO 205 cells at 10 uM relative to control; assay type: functional; details: read-out: GI
SK-MEL-2 = assay: Growth inhibition of human SK-MEL-2 cells at 10 uM relative to control; assay type: functional; details: read-out: GI
RPMI-8226 = assay: Growth inhibition of human RPMI-8226 cells at 10 uM relative to control; assay type: functional; details: read-out: GI
HCC 2998 = assay: Growth inhibition of human HCC 2998 cells at 10 uM relative to control; assay type: functional; details: read-out: GI
UO-31 = assay: Growth inhibition of human UO-31 cells at 10 uM relative to control; assay type: functional; details: read-out: GI
M14 = assay: Growth inhibition of human M14 cells at 10 uM relative to control; assay type: functional; details: read-out: GI
TK-10 = assay: Growth inhibition of human TK-10 cells at 10 uM relative to control; assay type: functional; details: read-out: GI
HOP-62 = assay: Growth inhibition of human HOP-62 cells at 10 uM relative to control; assay type: functional; details: read-out: GI
ACHN = assay: Growth inhibition of human ACHN cells at 10 uM relative to control; assay type: functional; details: read-out: GI
SNB-75 = assay: Growth inhibition of human SNB-75 cells at 10 uM relative to control; assay type: functional; details: read-out: GI
NCI-H226 = assay: Growth inhibition of human NCI-H226 cells at 10 uM relative to control; assay type: functional; details: read-out: GI
A549 = assay: Growth inhibition of human A549 cells at 10 uM relative to control; assay type: functional; details: read-out: GI
KM12 = assay: Growth inhibition of human KM12 cells at 10 uM relative to control; assay type: functional; details: read-out: GI
CCRF-CEM = assay: Growth inhibition of human CCRF-CEM cells at 10 uM relative to control; assay type: functional; details: read-out: GI
SK-OV-3 = assay: Growth inhibition of human SK-OV-3 cells at 10 uM relative to control; assay type: functional; details: read-out: GI
HCT-116 = assay: Growth inhibition of human HCT-116 cells at 10 uM relative to control; assay type: functional; details: read-out: GI
SNB-19 = assay: Growth inhibition of human SNB-19 cells at 10 uM relative to control; assay type: functional; details: read-out: GI
OVCAR-5 = assay: Growth inhibition of human OVCAR-5 cells at 10 uM relative to control; assay type: functional; details: read-out: GI
RXF 393 = assay: Growth inhibition of human RXF 393 cells at 10 uM relative to control; assay type: functional; details: read-out: GI
CAKI-1 = assay: Growth inhibition of human CAKI-1 cells at 10 uM relative to control; assay type: functional; details: read-out: GI
U-251 = assay: Growth inhibition of human U-251 cells at 10 uM relative to control; assay type: functional; details: read-out: GI
NCI-H460 = assay: Growth inhibition of human NCI-H460 cells at 10 uM relative to control; assay type: functional; details: read-out: GI
MDA-MB-231 = assay: Growth inhibition of human MDA-MB-231 cells at 10 uM relative to control; assay type: functional; details: read-out: GI
786-0 = assay: Growth inhibition of human 786-0 cells at 10 uM relative to control; assay type: functional; details: read-out: GI
UACC-62 = assay: Growth inhibition of human UACC-62 cells at 10 uM relative to control; assay type: functional; details: read-out: GI
SR = assay: Growth inhibition of human SR cells at 10 uM relative to control; assay type: functional; details: read-out: GI
MOLT-4 = assay: Growth inhibition of human MOLT-4 cells at 10 uM relative to control; assay type: functional; details: read-out: GI
SN12C = assay: Growth inhibition of human SN12C cells at 10 uM relative to control; assay type: functional; details: read-out: GI
MDA-MB-435 = assay: Growth inhibition of human MDA-MB-435 cells at 10 uM relative to control; assay type: functional; details: read-out: GI
HT-29 = assay: Growth inhibition of human HT-29 cells at 10 uM relative to control; assay type: functional; details: read-out: GI
MDA-MB-468 = assay: Growth inhibition of human MDA-MB-468 cells at 10 uM relative to control; assay type: functional; details: read-out: GI
DNA = assay: Displacement of methyl green from DNA (unknown origin) assessed as DNA intercalation after 24 hrs by colorimetric assay; assay type: nucleic-acid assay
A498 = assay: Growth inhibition of human A498 cells at 10 uM relative to control; assay type: functional; details: read-out: GI
T47D = assay: Growth inhibition of human T47D cells at 10 uM relative to control; assay type: functional; details: read-out: GI
SF-295 = assay: Growth inhibition of human SF-295 cells at 10 uM relative to control; assay type: functional; details: read-out: GI
OVCAR-4 = assay: Growth inhibition of human OVCAR-4 cells at 10 uM relative to control; assay type: functional; details: read-out: GI
HOP-92 = assay: Growth inhibition of human HOP-92 cells at 10 uM relative to control; assay type: functional; details: read-out: GI
NCI/ADR-RES = assay: Growth inhibition of human NCI/ADR-RES cells at 10 uM relative to control; assay type: functional; details: read-out: GI
SK-MEL-28 = assay: Growth inhibition of human SK-MEL-28 cells at 10 uM relative to control; assay type: functional; details: read-out: GI

## C1=CN2C(=NC(/C=C/c3cccs3)=CC2c2cccs2)S1 (centres undefined)
NCI-H522
  inhibition of growth at 10 µM: < 10%
MCF7
  inhibition of growth at 10 µM: < 10%
HCT-15
  inhibition of growth at 10 µM: < 10%
SK-MEL-5
  inhibition of growth at 10 µM: < 10%
HL-60(TB)
  inhibition of growth at 10 µM: < 10%
K562
  inhibition of growth at 10 µM: < 10%
SF-539
  inhibition of growth at 10 µM: < 10%
OVCAR-8
  inhibition of growth at 10 µM: < 10%
DU-145
  inhibition of growth at 10 µM: < 10%
UACC-257
  inhibition of growth at 10 µM: < 10%
Hs-578T
  inhibition of growth at 10 µM: < 10%
SF-268
  inhibition of growth at 10 µM: < 10%
IGROV-1
  inhibition of growth at 10 µM: < 10%
BT-549
  inhibition of growth at 10 µM: < 10%
PC-3
  inhibition of growth at 10 µM: < 10%
NCI-H23
  inhibition of growth at 10 µM: < 10%
Malme-3M
  inhibition of growth at 10 µM: < 10%
NCI-H322M
  inhibition of growth at 10 µM: < 10%
LOX IMVI
  inhibition of growth at 10 µM: < 10%
SW-620
  inhibition of growth at 10 µM: < 10%
COLO 205
  inhibition of growth at 10 µM: < 10%
SK-MEL-2
  inhibition of growth at 10 µM: < 10%
RPMI-8226
  inhibition of growth at 10 µM: < 10%
HCC 2998
  inhibition of growth at 10 µM: < 10%
UO-31
  inhibition of growth at 10 µM: < 10%
M14
  inhibition of growth at 10 µM: < 10%
TK-10
  inhibition of growth at 10 µM: < 10%
HOP-62
  inhibition of growth at 10 µM: < 10%
ACHN
  inhibition of growth at 10 µM: < 10%
SNB-75
  inhibition of growth at 10 µM: 12.3%
NCI-H226
  inhibition of growth at 10 µM: < 10%
A549
  inhibition of growth at 10 µM: < 10%
KM12
  inhibition of growth at 10 µM: < 10%
CCRF-CEM
  inhibition of growth at 10 µM: < 10%
SK-OV-3
  inhibition of growth at 10 µM: < 10%
HCT-116
  inhibition of growth at 10 µM: < 10%
SNB-19
  inhibition of growth at 10 µM: < 10%
OVCAR-5
  inhibition of growth at 10 µM: < 10%
RXF 393
  inhibition of growth at 10 µM: < 10%
CAKI-1
  inhibition of growth at 10 µM: < 10%
U-251
  inhibition of growth at 10 µM: < 10%
NCI-H460
  inhibition of growth at 10 µM: < 10%
MDA-MB-231
  inhibition of growth at 10 µM: < 10%
786-0
  inhibition of growth at 10 µM: < 10%
UACC-62
  inhibition of growth at 10 µM: < 10%
SR
  inhibition of growth at 10 µM: < 10%
MOLT-4
  inhibition of growth at 10 µM: < 10%
SN12C
  inhibition of growth at 10 µM: < 10%
MDA-MB-435
  inhibition of growth at 10 µM: < 10%
HT-29
  inhibition of growth at 10 µM: < 10%
MDA-MB-468
  inhibition of growth at 10 µM: < 10%
DNA
  IC50: 33.67 µg/mL (≈ 103 µM)
A498
  inhibition of growth at 10 µM: < 10%
T47D
  inhibition of growth at 10 µM: < 10%
SF-295
  inhibition of growth at 10 µM: < 10%
OVCAR-4
  inhibition of growth at 10 µM: < 10%
HOP-92
  inhibition of growth at 10 µM: < 10%
NCI/ADR-RES
  inhibition of growth at 10 µM: < 10%
SK-MEL-28
  inhibition of growth at 10 µM: < 10%
